Values joined by “and” are separate entries in the source; they are usually repeats but may differ in a detail not shown here. Equal entries are not always repeated.
Legend:
hTLR8 = biological target: T1, hTLR8 (Homo sapiens, UniProt Q9NR97); assay: Toll-like receptor binding/stimulation, HEK293 cells expressing hTLR8; assay type: cell-based; conditions: CL075 1 μg/mL
T1 construct: expressed in transfected cells; host or cells: HEK293 (293/hTLR8)
T1 sequence (Q9NR97 27-1041): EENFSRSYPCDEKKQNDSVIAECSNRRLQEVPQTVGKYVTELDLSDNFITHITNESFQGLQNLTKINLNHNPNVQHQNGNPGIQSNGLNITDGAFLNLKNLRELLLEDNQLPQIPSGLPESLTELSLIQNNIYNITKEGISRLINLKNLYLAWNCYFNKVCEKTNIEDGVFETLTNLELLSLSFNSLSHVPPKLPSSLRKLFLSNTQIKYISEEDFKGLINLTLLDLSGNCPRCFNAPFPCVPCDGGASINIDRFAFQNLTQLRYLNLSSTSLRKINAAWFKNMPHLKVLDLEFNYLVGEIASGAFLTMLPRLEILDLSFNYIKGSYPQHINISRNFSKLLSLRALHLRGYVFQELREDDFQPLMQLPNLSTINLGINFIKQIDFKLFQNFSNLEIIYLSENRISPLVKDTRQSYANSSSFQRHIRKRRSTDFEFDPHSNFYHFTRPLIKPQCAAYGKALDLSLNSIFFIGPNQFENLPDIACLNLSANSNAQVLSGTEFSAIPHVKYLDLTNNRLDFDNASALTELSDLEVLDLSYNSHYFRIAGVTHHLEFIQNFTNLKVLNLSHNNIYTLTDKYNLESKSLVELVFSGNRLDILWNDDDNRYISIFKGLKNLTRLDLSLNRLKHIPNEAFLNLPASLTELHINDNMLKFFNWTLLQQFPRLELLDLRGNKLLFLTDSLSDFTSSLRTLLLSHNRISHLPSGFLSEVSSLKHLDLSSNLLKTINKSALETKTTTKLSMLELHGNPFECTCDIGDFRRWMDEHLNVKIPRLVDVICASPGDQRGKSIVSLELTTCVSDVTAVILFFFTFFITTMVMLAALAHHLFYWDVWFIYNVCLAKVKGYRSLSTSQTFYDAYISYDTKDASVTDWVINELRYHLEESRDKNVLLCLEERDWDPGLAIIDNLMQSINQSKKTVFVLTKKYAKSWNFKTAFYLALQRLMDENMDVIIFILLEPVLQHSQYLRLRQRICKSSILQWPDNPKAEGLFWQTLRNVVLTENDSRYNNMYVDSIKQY
Description: (§1) Samples in three concentrations (0.5 μg/mL, 5 μg/mL, and 50 μg/mL) of the biological response modifier (proteic aggregate of ammonium and magnesium phospholinoleate-palmitoleate anhydride) were dissolved in dimethylsulfoxide (DMSO at 1%) at the concentration of 1% and incubated with 293 TLR cells (HEK293 cells) in microplates, in duplicate, for 20 hours.
(§2) Standard compounds, that is, ligands known for TLR 3 to TLR9 in predetermined concentrations were also incubated in microplates with 293 TLR cells (HEK293 cells) for 20 hours.
(§3) Subsequently, absorbance readings were taken of the microplates […] at 650 nm using a Beckman Coulter AD 340C Absorbance Detector device with three concentrations of the biological response modifier (proteic aggregate of ammonium and magnesium phospholinoleate-palmitoleate anhydride) incubated with the HEK293 cells and readings were also taken of the microplates incubated with the same cells and the control substances, for comparative assessment of the percentage of binding of the aforementioned compounds to toll-like receptors expressed in HEK293 cells.

hTLR3 = biological target: T2, hTLR3 (Homo sapiens, UniProt O15455); assay: Toll-like receptor binding/stimulation, HEK293 cells expressing hTLR3; assay type: cell-based; conditions: Poly (I: C) 1 μg/mL
T2 construct: expressed in transfected cells; host or cells: HEK293 (293/hTLR3)
T2 sequence (O15455 24-904): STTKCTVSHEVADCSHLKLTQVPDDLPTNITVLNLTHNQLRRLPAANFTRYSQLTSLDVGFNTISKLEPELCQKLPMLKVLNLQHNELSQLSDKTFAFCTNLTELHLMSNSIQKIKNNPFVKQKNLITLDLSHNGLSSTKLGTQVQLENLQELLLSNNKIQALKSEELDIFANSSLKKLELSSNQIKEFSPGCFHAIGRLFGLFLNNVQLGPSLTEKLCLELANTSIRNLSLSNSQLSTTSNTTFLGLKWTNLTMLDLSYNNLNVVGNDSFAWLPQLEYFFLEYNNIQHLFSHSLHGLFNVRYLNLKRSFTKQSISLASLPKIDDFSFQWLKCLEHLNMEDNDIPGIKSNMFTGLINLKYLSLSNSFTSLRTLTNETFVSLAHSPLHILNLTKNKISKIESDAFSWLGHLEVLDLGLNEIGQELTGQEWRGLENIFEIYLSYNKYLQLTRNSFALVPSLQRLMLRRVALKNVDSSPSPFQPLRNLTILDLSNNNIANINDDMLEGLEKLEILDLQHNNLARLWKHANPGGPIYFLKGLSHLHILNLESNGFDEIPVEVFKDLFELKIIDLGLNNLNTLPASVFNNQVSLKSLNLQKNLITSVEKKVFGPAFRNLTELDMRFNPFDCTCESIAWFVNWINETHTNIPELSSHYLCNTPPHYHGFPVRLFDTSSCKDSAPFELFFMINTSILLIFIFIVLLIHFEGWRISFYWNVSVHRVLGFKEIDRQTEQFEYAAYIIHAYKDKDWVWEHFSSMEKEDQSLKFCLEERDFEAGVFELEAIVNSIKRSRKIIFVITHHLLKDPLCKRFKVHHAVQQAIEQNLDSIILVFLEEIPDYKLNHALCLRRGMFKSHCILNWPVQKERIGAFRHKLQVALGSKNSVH
Description: as §1, §2, §3

hTLR7 = biological target: T3, hTLR7 (Homo sapiens, UniProt Q9NYK1); assay: Toll-like receptor binding/stimulation, HEK293 cells expressing hTLR7; assay type: cell-based; conditions: CL097 1 μg/mL
T3 construct: expressed in transfected cells; host or cells: HEK293 (293/hTLR7)
T3 sequence (Q9NYK1 27-1049): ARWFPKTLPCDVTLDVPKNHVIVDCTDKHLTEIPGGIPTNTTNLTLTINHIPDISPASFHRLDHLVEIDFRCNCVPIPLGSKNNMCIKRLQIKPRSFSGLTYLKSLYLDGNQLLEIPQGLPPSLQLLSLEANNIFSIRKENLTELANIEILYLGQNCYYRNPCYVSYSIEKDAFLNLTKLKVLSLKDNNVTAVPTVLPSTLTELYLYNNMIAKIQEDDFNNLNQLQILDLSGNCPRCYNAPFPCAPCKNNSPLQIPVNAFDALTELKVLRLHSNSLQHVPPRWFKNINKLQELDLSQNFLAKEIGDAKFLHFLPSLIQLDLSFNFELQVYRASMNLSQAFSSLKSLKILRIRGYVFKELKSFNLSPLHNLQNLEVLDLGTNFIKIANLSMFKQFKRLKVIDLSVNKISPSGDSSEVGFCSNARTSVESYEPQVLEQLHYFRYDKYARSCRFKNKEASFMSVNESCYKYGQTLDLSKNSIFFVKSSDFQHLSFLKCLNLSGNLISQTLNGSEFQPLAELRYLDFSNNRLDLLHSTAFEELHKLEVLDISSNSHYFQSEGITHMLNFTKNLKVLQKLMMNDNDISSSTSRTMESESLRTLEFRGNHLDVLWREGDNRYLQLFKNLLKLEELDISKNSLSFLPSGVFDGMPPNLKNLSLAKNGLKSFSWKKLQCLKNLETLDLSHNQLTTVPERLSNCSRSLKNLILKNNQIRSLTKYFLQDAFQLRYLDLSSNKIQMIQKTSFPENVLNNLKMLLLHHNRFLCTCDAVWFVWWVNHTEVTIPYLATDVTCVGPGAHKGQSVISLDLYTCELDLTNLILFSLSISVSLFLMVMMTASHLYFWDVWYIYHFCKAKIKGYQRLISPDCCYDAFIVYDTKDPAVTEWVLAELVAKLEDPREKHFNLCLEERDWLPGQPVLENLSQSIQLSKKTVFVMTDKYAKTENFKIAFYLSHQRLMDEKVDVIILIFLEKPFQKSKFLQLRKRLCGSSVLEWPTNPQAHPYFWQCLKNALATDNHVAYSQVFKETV
Description: as §1, §2, §3

metastatic melanoma = conditions: high doses of interferon-alpha alone; cited from earlier work
NF-κB Control cells = assay: Toll-like receptor screening, NF-κB control cells; assay type: cell-based; conditions: TNFα 100 ng/ml
Description: as §1, §2, §3

hTLR9 = biological target: T4, hTLR9 (Homo sapiens, UniProt Q9NR96); assay: Toll-like receptor binding/stimulation, HEK293 cells expressing hTLR9; assay type: cell-based; conditions: CpG ODN 2006 1 μg/mL
T4 construct: expressed in transfected cells; host or cells: HEK293 (293/hTLR9)
T4 sequence (Q9NR96 26-1032): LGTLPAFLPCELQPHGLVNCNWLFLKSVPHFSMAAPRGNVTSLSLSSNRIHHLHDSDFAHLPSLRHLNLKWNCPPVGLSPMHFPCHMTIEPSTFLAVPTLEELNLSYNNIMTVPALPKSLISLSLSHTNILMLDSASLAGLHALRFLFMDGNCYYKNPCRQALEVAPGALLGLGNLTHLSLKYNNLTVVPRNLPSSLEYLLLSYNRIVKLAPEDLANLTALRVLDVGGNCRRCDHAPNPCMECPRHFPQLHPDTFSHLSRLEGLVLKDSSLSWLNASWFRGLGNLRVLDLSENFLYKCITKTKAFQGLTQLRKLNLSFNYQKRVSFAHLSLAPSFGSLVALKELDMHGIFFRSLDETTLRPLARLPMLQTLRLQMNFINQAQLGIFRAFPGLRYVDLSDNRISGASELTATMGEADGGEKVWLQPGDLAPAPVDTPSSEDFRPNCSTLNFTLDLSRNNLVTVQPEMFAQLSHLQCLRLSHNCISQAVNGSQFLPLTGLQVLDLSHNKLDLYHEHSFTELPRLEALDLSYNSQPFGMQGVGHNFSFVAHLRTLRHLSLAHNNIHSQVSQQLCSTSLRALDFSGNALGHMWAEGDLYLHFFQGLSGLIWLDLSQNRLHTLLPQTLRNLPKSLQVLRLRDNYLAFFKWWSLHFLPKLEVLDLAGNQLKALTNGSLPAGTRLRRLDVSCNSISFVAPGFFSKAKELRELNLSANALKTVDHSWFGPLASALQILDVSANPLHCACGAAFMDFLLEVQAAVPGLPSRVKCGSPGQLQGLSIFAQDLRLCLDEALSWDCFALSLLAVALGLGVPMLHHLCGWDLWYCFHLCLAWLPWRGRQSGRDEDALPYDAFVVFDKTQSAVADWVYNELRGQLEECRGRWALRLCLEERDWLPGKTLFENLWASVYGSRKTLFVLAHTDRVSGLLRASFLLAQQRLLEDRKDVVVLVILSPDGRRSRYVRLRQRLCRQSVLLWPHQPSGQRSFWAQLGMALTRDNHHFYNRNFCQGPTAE
Description: as §1, §2, §3

hTLR5 = hTLR5 (Homo sapiens, UniProt O60602); assay: Toll-like receptor binding/stimulation, HEK293 cells expressing hTLR5; assay type: cell-based; conditions: S. typhimurium flagellin 100 ng/ml
hTLR5, sequence (O60602 21-858): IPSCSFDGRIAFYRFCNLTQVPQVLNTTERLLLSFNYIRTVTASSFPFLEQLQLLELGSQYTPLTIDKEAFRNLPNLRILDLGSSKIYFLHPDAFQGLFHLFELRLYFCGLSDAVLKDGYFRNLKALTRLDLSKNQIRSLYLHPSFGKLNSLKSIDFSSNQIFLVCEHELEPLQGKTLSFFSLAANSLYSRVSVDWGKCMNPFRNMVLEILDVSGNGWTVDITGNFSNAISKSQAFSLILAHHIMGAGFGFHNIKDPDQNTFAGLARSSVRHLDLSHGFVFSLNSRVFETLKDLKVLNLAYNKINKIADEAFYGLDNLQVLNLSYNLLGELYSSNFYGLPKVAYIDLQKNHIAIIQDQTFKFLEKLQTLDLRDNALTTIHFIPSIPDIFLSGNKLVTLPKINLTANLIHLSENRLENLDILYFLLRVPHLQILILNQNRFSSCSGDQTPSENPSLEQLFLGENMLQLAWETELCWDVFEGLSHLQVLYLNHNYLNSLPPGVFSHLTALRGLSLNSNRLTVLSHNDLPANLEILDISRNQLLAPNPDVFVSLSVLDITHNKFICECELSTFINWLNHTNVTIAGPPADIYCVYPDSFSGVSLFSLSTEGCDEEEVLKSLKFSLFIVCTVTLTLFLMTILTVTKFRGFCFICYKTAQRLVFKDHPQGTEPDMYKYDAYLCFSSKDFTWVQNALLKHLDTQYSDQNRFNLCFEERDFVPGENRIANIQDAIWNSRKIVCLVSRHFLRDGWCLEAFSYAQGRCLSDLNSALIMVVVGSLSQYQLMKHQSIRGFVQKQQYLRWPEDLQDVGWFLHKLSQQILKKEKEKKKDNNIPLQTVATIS
Description: Subsequently, absorbance readings were taken of the microplates by fluorescence at 650 nm using a Beckman Coulter AD 340C Absorbance Detector device with three concentrations of the biological response modifier (proteic aggregate of ammonium and magnesium phospholinoleate-palmitoleate anhydride) incubated with the HEK293 cells and readings were also taken of the microplates incubated with the same cells and the control substances, for comparative assessment of the percentage of binding of the aforementioned compounds to toll-like receptors expressed in HEK293 cells.

Molecule: CCCc1nc2c(N)nc3ccccc3c2s1 [CL075]
- OD (650 nm), 293/hTLR8 cells, Controls+ (hTLR8; 20 h, screening 1 and 2): 3.313 OD (650 nm) and 3.338 OD (650 nm)
- % ligands (% bindings), 293/hTLR8, Controls (hTLR8; reference): 100%

Molecule: Poly (I: C)
- OD (650 nm), 293/hTLR3 cells, Controls+ (hTLR3; 20 h, screening 1 and 2): 3.287 OD (650 nm) and 3.440 OD (650 nm)
- % ligands (% bindings), 293/hTLR3, Controls (hTLR3; reference): 100%

Molecule: CCOCc1nc2c([nH]1)c(N)nc1ccccc12 [CL097]
- OD (650 nm), 293/hTLR7 cells, Controls+ (hTLR7; 20 h, screening 1 and 2): 3.222 OD (650 nm) and 3.359 OD (650 nm)
- % ligands (% bindings), 293/hTLR7, Controls (hTLR7; reference): 100%

Molecule: interferon-alpha
- response rate (metastatic melanoma): around 20%

Molecule: TNFα
- OD (650 nm), Cells NF-κB Controls, Controls+ (NF-κB Control cells; 20 h, screening 1 and 2): 2.221 OD (650 nm) and 2.042 OD (650 nm)
- % ligands (% bindings), Cell NF-κB Controls, Controls (NF-κB Control cells; reference): 100%

Molecule: CpG ODN 2006
- OD (650 nm), 293/hTLR9 cells, Controls+ (hTLR9; 20 h, screening 1 and 2): 2.582 OD (650 nm) and 2.519 OD (650 nm)
- % ligands (% bindings), 293/hTLR9, Controls (hTLR9; reference): 100%

B1: S. typhimurium flagellin: TLR5 control ligand (protein, UniProt P06179 2-495, looked up)
Flagellin: AQVINTNSLSLLTQNNLNKSQSALGTAIERLSSGLRINSAKDDAAGQAIANRFTANIKGLTQASRNANDGISIAQTTEGALNEINNNLQRVRELAVQSANSTNSQSDLDSIQAEITQRLNEIDRVSGQTQFNGVKVLAQDNTLTIQVGANDGETIDIDLKQINSQTLGLDTLNVQQKYKVSDTAATVTGYADTTIALDNSTFKASATGLGGTDQKIDGDLKFDDTTGKYYAKVTVTGGTGKDGYYEVSVDKTNGEVTLAGGATSPLTGGLPATATEDVKNVQVANADLTEAKAALTAAGVTGTASVVKMSYTDNNGKTIDGGLAVKVGDDYYSATQNKDGSISINTTKYTADDGTSKTALNKLGGADGKTEVVSIGGKTYAASKAEGHNFKAQPDLAEAAATTTENPLQKIDAALAQVDTLRSDLGAVQNRFNSAITNLGNTVNNLTSARSRIEDSDYATEVSNMSRAQILQQAGTSVLAQANQVPQNVLSLLR
- OD (650 nm), 293/hTLR5 cells, Controls+ (hTLR5; 20 h, screening 1 and 2): 3.662 OD (650 nm) and 3.798 OD (650 nm)
- % ligands (% bindings), 293/hTLR5, Controls (hTLR5; reference): 100%
